{"source": "patent US20130197016A1", "about": "“DOSING REGIMES FOR THE TREATMENT OF OCULAR VASCULAR DISEASE” (priority 2010, published 2013)", "key": {"[1]": {"experiment": "Ocular PK in Brown Norway rats following a single oral dose (Example 5)", "assay_type": "in vivo", "details": "for Kp / AUC(0-t): Brown Norway, rat; for Kp: retina/plasma, po; for AUC(0-t): sampling 6-144 hrs; for Concentration over time in posterior eye cup and retina (words, FIG. 3-6): single oral dose per Table 3 (Compound 1 30 mg/kg, Compound 2 10 mg/kg, Compound 9 10 mg/kg)", "method": "Three month old Brown Norway rats were administered orally with active agent of Table 1 at the dosing concentration and formulation specified in Table 3 infra. […] The ocular tissues collected were the retina and the posterior eye cup.\nOcular tissues were homogenized and plasma proteins precipitated and drug concentration was analyzed by LC-MS/MS."}, "[2]": {"test_system": "laser-induced choroidal neovascularization (CNV) area", "experiment": "Rat laser-induced CNV model; weekly administration (Example 3)", "assay_type": "in vivo, Brown Norway rats", "details": "for inhibition in vivo at 1 mg/kg: 1 mg/kg weekly (before laser, day 6 and 13); for Efficacy in a weekly dosing regimen: weekly dosing at doses of Table 2, compared to daily; for inhibition in vivo at 0.3 mg/kg: 0.3 mg/kg weekly (before laser, day 6 and 13); for inhibition in vivo at 3 mg/kg: 3 mg/kg weekly (before laser, day 6 and 13), formulation A (B for Compound 9)", "method": "After laser insults, the rats were administered the compounds of Table 1 formulated as specified in Table 2 or placebo on day 6 and 13."}, "[3]": {"test_system": "laser-induced choroidal neovascularization (CNV) area", "experiment": "Rat laser-induced choroidal neovascularization (CNV) model; daily administration (Example 1)", "assay_type": "in vivo, Brown Norway rats", "details": "264 h, read-out: Efficacy Daily % (Ex. 1); for inhibition in vivo at 1 mg/kg: 1 mg/kg oral daily to day 11 or 12, formulation A; for inhibition in vivo at 0.3 mg/kg: 0.3 mg/kg oral daily to day 11 or 12, formulation A", "method": "Three month old Brown Norway rats were administered with placebo or active agent of Table 1 at the dosing concentration and formulation specified in Table 2 infra about one hour prior to laser application. The rat eyes were dilated with one drop of phenylephrine and cyclopentolate (Altaire Pharmaceuticals inc. Aqueboque, N.Y. and Akorn Inc. Lake Forest, Ill.) and then immobilized. Each eye was administered four laser burns 2-3 disc diameters from the optic nerve with an Oculight GLx 532 nm laser (Iridex). Each study group had 10 rats, 20 eyes and 80 data points.\nAfter laser insult, the rats were administered placebo or the compounds of Table 1 at the dosing concentration and formulation specified in Table 2 daily from day 1 to day 11 or 12. Immediately before harvesting the eyes, rodents were injected i.v. with a 2,000 kd fluorescein isothiocyanate (FITC) dextran vascular label. Tissues were harvested about 24 hours after the last dose was administered.\nEyes were fixed with 4% paraformaldehyde and the retinal pigment epithelium(RPE)/choroid/sclera complexes dissected and placed onto microscope slides. Fluorescent images of each CNV lesion were captured and lesion areas were quantified on masked data using Axiovision software (Version 4.5 Zeiss). Inter-group differences were analyzed by one-way analysis of variance (ANOVA) with a Neuman-Keuls post hoc analysis (Prism v. 4.02 by GraphPad Software, Inc. La Jolla Calif.). Efficacy is defined herein to mean the percentage reduction in CNV area after treatment compared to placebo.\nEach group consisted of 10 rats, 4 laser burns/eye, and 80 data points/group. Assay length was 11 or 12 days after laser (1 mg/kg n=2, 3 mg/kg n=5, 10 mg/kg n=7, 30 mg/kg n=1)."}, "[4]": {"test_system": "neovascular adult macular degeneration (AMD)", "details": "oral, alone or with intravitreal bevacizumab, daily or thrice weekly, three patients; cited from earlier work"}, "[5]": {"details": "Rattus norvegicus, 144 h, formulation A, percent reduction in CNV area vs vehicle control, read-out: Efficacy Weekly % (Ex. 3)"}, "[6]": {"details": "percent reduction in CNV area vs vehicle control"}, "[7]": {"details": "Rattus norvegicus, 144 h, percent reduction in CNV area vs vehicle control, read-out: Efficacy Weekly % (Ex. 3)"}, "[8]": {"details": "3 mg/kg oral daily to day 11 or 12, formulation A (B for Compound 9), percent reduction in CNV area vs vehicle control"}}, "note": "“Also recorded” adds a separate entry of the source. Read-outs that look alike come from different tables or passages of the source.", "data": [{"compound": "Cc1ccc(Nc2nccc(N(C)c3ccc4c(C)n(C)nc4c3)n2)cc1S(N)(=O)=O", "note": "[Compound 1, 5-[[4-[(2,3-Dimethyl-2H-indazol-6-yl)methylamino]-2-pyrimidinyl]amino]-2-methylbenzolsulfonamide]", "values": [{"measurement": "Kp", "setting": "[1]; 30 mg/kg", "result": 0.2}, {"measurement": "AUC(0-t)", "setting": "[1]; single oral dose 30 mg/kg, plasma, read-out: AUC(last) Plasma", "result": 583, "unit": "µM·h"}, {"measurement": "AUC(0-t)", "setting": "[1]; single oral dose 30 mg/kg, posterior eye cup, read-out: AUC(last) PEC", "result": 6820, "unit": "µM·h"}, {"measurement": "AUC(0-t)", "setting": "[1]; single oral dose 30 mg/kg, retina, read-out: AUC(last) Retina", "result": 132, "unit": "µM·h"}, {"measurement": "Plasma exposure over time (words, FIG. 3-4)", "setting": "[1]; single oral dose per Table 3 (Compound 1 30 mg/kg, Compound 2 10 mg/kg)", "result": "increased plasma exposure throughout the duration of the week after administration"}, {"measurement": "Concentration over time in posterior eye cup and retina (words, FIG. 3-6)", "setting": "[1]", "result": "sustained ocular exposure in the posterior eye cup tissues for at least a week"}, {"measurement": "inhibition in vivo at 30 mg/kg", "setting": "[2]; Rattus norvegicus, 144 h, 30 mg/kg weekly (before laser, day 6 and 13), formulation A, percent reduction in CNV area vs vehicle control, read-out: Efficacy Weekly % (Ex. 3)", "result": 50, "unit": "%"}, {"measurement": "inhibition in vivo at 30 mg/kg", "setting": "[3]; 30 mg/kg oral daily to day 11 or 12, formulation A, percent reduction in CNV area vs vehicle control", "result": 42, "unit": "%"}]}, {"compound": "Nc1cc(Oc2ccc3c(C(=O)Nc4cccc(C(F)(F)F)c4)cccc3c2)ncn1", "note": "[Compound 3, 6-(6-Amino-pyrimidin-4-yloxy)-naphthalene-1-carboxylic acid (3-trifluoromethyl-phenyl)-amide]", "values": [{"measurement": "inhibition in vivo at 1 mg/kg", "setting": "[2]; [5]", "result": 57, "unit": "%"}, {"measurement": "Efficacy in a weekly dosing regimen", "setting": "[2]", "result": "greatest level of efficacy"}, {"measurement": "inhibition in vivo at 1 mg/kg", "setting": "[3]; [6]", "result": 63, "unit": "%"}]}, {"compound": "CC(=O)N1Cc2ncnc(Oc3ccc4c(ccn4C(=O)Nc4cc(C5CC5)on4)c3)c2C[C@@H]1C", "note": "[Compound 4, (−)-5-((S)-7-Acetyl-6-methyl-5,6,7,8-tetrahydro-pyrido[3,4-d]pyrimidin-4-yloxy)-indole-1-carboxylic acid (5-cyclopropyl-isoxazol-3-yl)-amide]", "values": [{"measurement": "inhibition in vivo at 0.3 mg/kg", "setting": "[2]; [5]", "result": 50, "unit": "%"}, {"measurement": "inhibition in vivo at 0.3 mg/kg", "setting": "[3]; [6]", "result": 96, "unit": "%"}]}, {"compound": "CC1(c2cc(NC(=O)n3ccc4cc(Oc5ncnc6c5CCNC6)ccc43)[nH]n2)CC1", "note": "[Compound 5, 5-(5,6,7,8-Tetrahydro-pyrido[3,4-d]pyrimidin-4-yloxy)-indole-1-carboxylic acid [5-(1-methyl-cyclopropyl)-2H-pyrazol-3-yl]-amide]", "values": [{"measurement": "inhibition in vivo at 10 mg/kg", "setting": "[2]; Rattus norvegicus, 144 h, 10 mg/kg weekly (before laser, day 6 and 13), formulation A, percent reduction in CNV area vs vehicle control, read-out: Efficacy Weekly % (Ex. 3)", "result": 50, "unit": "%"}, {"measurement": "inhibition in vivo at 10 mg/kg", "setting": "[3]; 10 mg/kg oral daily to day 11 or 12, formulation A, percent reduction in CNV area vs vehicle control", "result": 85, "unit": "%"}]}, {"compound": "COc1cc2nccc(Oc3ccc(NC(=O)Nc4cc(C)on4)c(Cl)c3)c2cc1OC", "note": "[Compound 6, 1-(2-chloro-4-((6,7-dimethoxyquinolin-4-yl)oxy)phenyl)-3-(5-methylisoxazol-3-yl)urea]", "values": [{"measurement": "Kp", "setting": "[1]; 0.3 mg/kg", "result": 0.6}, {"measurement": "AUC(0-t)", "setting": "[1]; single oral dose 0.3 mg/kg, plasma, read-out: AUC(last) Plasma", "result": 1.2, "unit": "µM·h"}, {"measurement": "AUC(0-t)", "setting": "[1]; single oral dose 0.3 mg/kg, posterior eye cup, read-out: AUC(last) PEC", "result": 83.5, "unit": "µM·h"}, {"measurement": "AUC(0-t)", "setting": "[1]; single oral dose 0.3 mg/kg, retina, read-out: AUC(last) Retina", "result": 2.47, "unit": "µM·h"}, {"measurement": "Retinal to plasma exposure ratio, comparison among compounds", "setting": "[1]; single oral dose per Table 3 (Compound 2 10 mg/kg, Compound 6 0.3 mg/kg)", "result": "lower retinal to plasma exposure ratio than Compound 2"}, {"measurement": "Loss of efficacy in weekly dosing compared to daily dosing", "setting": "[2]; 0.3 mg/kg", "result": 39, "unit": "%"}, {"measurement": "inhibition in vivo at 0.3 mg/kg", "setting": "[2]; [5]", "result": 40, "unit": "%"}, {"measurement": "inhibition in vivo at 1 mg/kg", "setting": "[2]; [5]", "result": 90, "unit": "%"}, {"measurement": "Efficacy in a weekly dosing regimen", "setting": "[2]", "result": "greatest level of efficacy"}, {"measurement": "inhibition in vivo at 0.3 mg/kg", "setting": "[3]; [6]", "result": 79, "unit": "%"}, {"measurement": "inhibition in vivo at 1 mg/kg", "setting": "[3]; [6]", "result": 96, "unit": "%"}]}, {"compound": "O=C(Nc1cccc(C(F)(F)F)c1)c1cccc2cc(Oc3cc(CO)ncn3)ccc12", "note": "[Compound 7, 6-(6-Hydroxymethyl-pyrimidin-4-yloxy)-naphthalene-1-carboxylic acid (3-trifluoromethyl-phenyl)-amide]", "values": [{"measurement": "inhibition in vivo at 3 mg/kg", "setting": "[2]; [7]", "result": 46, "unit": "%"}, {"measurement": "inhibition in vivo at 3 mg/kg", "setting": "[3]; [8]", "result": 96, "unit": "%"}]}, {"compound": "O=C(Nc1cc(C2CC2)on1)n1ccc2cc(Oc3ncnc4c3CNC4)ccc21", "note": "[Compound 8, 5-(6,7-dihydro-5H-pyrrolo[3,4-d]pyrimidin-4-yloxy)-indole-1-carboxylic acid (5-cyclopropyl-isoxazol-3-yl)-amide]", "values": [{"measurement": "inhibition in vivo at 3 mg/kg", "setting": "[2]; [7]", "result": 26, "unit": "%"}, {"measurement": "Efficacy in a weekly dosing regimen", "setting": "[2]", "result": "least efficacy"}, {"measurement": "inhibition in vivo at 3 mg/kg", "setting": "[3]; [8]", "result": 88, "unit": "%"}]}, {"compound": "CNC(=O)c1cc(Oc2ccc(NC(=O)Nc3ccc(Cl)c(C(F)(F)F)c3)cc2)ccn1", "note": "[Compound 9, 4-[4-[[4-chloro-3-(trifluoromethyl)phenyl]carbamoylamino]phenoxy]-N-methyl-pyridine-2-carboxamide]", "values": [{"measurement": "Kp", "setting": "[1]; 10 mg/kg", "result": 2.1}, {"measurement": "AUC(0-t)", "setting": "[1]; single oral dose 10 mg/kg, plasma, read-out: AUC(last) Plasma", "result": 151, "unit": "µM·h"}, {"measurement": "AUC(0-t)", "setting": "[1]; single oral dose 10 mg/kg, posterior eye cup, read-out: AUC(last) PEC", "result": 82, "unit": "µM·h"}, {"measurement": "AUC(0-t)", "setting": "[1]; single oral dose 10 mg/kg, retina, read-out: AUC(last) Retina", "result": 95.1, "unit": "µM·h"}, {"measurement": "Concentration over time in posterior eye cup and retina (words, FIG. 3-6)", "setting": "[1]", "result": "substantially similar at each sampling time point"}, {"measurement": "inhibition in vivo at 3 mg/kg", "setting": "[2]; [7]", "result": 26, "unit": "%"}, {"measurement": "Efficacy in a weekly dosing regimen", "setting": "[2]", "result": "least efficacy; also recorded: absence of efficacy"}, {"measurement": "Benefit in neovascular AMD patients", "setting": "[4]", "result": "uncertain benefit"}, {"measurement": "inhibition in vivo at 3 mg/kg", "setting": "[3]; po", "result": 90, "unit": "%"}]}, {"compound": "CNCc1cc(Oc2ccc3c(ccn3C(=O)Nc3cc(C(F)(F)F)n(C)n3)c2)ncn1", "note": "[Compound 10, 5-(6-Methylaminomethyl-pyrimidin-4-yloxy)-indole-1-carboxylic acid (1-methyl-5-trifluoromethyl-1H-pyrazol-3-yl)-amide]", "values": [{"measurement": "inhibition in vivo at 1 mg/kg", "setting": "[2]; [5]", "result": 23, "unit": "%"}, {"measurement": "Efficacy in a weekly dosing regimen", "setting": "[2]", "result": "least efficacy"}, {"measurement": "inhibition in vivo at 1 mg/kg", "setting": "[3]; [6]", "result": 88, "unit": "%"}]}]}
